Test results reported in PMC12998938, “Neutrophil store-operated Ca^2+ entry: A correctable biomarker of cystic fibrosis lung disease progression” (Journal of cystic fibrosis : official journal of the …, 2025).

Key:
[1] = tested on: HEK293T Orai1, Orai2 and Orai3 triple knockout cells; test: SOCE in Orai1/2/3 triple knockout HEK293T cells; type: cell-based; details: thapsigargin, 7-9 replicates, 3 experiments
Excerpt: We hypothesized that inhibiting SOCE in CF neutrophils may reduce the secretion of neutrophil elastase and other proteins associated with CF lung disease. To validate ELD607’s specificity for Orai1 over Orai2 and Orai3, we first evaluated ELD607 function in HEK293T cells that had Orai1, Orai2 and Orai3 stably knocked out. […] Next we evaluated ELD607’s ability to inhibit SOCE in non-CF and CF neutrophils.
Supplemental figure 3. […] Dose responses of thapsigargin-induced changes in cytoplasmic Ca^2+ concentrations. These studies were performed in HEK293T where Orai1, Orai2 and Orai3 had been stably knocked down (triple knockout cells, TKO) or in TKO cells that were transiently transfected with Orai1, Orai2 or Orai3 as indicated. All data are from 7-9 replicates per data point from 3 separate experiments.

[2] = tested on: Pseudomonas aeruginosa-infected mice; details: ref [21], cited from earlier work

Question: For “VHDIVNMLIRG [ELD607, size-optimized SPLUNC1/α6 peptidomimetic]”, which “effect on SOCE” value [1] is on record?
Answer: The value was “no effect on SOCE”.

Question: And the “neutrophilia and neutrophil elastase release” value ([2]; P. aeruginosa-infected mice)?
Answer: Its value is “reduces neutrophilia and neutrophil elastase release”.

Question: What about the “neutrophil influx into the lungs” value ([2]; mice, P. aeruginosa, reduced lung injury, increased survival) of the same sequence?
Answer: The value was “reduces neutrophil influx into the lungs of mice”.
